The values below are quoted from earlier work in US20250134923A1, “SUPERABSORBENT HYDROGELS WITH LIPASE INHIBITOR” (JUNION LABS PTE. LTD., priority 2021, published 2025).

Structures are written as SMILES.

This data set has as its system fat absorption. As to conditions: therapeutic doses (120 mg with meals).

As for `CCCCCCCCCCC[C@@H](C[C@@H]1OC(=O)[C@H]1CCCCCC)OC(=O)[C@H](CC(C)C)NC=O` [Orlistat, (2S,3S,5S)-5-[(S)-2-formamido4-methyl-valeryloxy]-2-hexyl-3-hydroxy-hexadecanoic 1,3 acid lactone], the additional caloric deficit entry is “approximately 200 calories” and the “inhibition of fat absorption (of ingested fat)” value is “approximately 30%”.
